Measurements from paper PMC6412891, “Synthesis and Biological Evaluation of Novel Thiazolyl-Coumarin Derivatives as Potent Histone Deacetylase Inhibitors with Antifibrotic Activity” (Molecules, 2019).

Experiments:
[1] = target: T1, HDAC6 human recombinant (Homo sapiens, UniProt Q9UBN7); experiment: HDAC6 inhibitory activity, fluorometric kit; format: biochemical; conditions: Class II
T1 construct: purchased Enzo Life Science BML-AK516
T1 sequence (Q9UBN7 1-1215): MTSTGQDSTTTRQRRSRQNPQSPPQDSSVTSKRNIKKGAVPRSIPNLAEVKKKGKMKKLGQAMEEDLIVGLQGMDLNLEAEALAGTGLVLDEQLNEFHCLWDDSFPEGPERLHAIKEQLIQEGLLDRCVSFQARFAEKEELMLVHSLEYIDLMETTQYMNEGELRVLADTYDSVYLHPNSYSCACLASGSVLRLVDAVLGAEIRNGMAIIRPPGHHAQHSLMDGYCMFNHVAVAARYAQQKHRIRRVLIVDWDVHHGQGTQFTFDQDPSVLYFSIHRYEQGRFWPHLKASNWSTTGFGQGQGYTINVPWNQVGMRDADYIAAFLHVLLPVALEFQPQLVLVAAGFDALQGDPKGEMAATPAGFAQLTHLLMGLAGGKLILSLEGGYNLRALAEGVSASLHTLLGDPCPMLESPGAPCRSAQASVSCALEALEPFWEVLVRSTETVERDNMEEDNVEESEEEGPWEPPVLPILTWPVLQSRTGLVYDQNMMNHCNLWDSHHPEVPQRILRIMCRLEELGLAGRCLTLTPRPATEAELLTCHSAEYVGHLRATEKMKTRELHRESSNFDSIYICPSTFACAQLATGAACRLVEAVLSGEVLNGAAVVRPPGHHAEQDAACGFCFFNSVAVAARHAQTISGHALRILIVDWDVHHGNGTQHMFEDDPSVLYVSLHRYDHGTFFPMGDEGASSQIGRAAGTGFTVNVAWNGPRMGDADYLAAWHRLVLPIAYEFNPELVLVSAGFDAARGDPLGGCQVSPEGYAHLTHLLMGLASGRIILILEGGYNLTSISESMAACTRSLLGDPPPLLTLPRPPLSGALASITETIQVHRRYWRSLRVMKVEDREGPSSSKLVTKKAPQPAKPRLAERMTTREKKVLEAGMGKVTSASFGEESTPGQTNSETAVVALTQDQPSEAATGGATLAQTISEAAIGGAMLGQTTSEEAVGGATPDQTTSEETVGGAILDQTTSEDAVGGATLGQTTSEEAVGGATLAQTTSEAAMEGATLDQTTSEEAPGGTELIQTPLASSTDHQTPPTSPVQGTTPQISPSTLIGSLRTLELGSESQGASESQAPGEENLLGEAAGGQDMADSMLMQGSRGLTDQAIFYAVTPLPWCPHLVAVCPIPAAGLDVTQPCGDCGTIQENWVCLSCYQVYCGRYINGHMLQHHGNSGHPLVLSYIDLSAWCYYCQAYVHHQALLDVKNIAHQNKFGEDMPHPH

[2] = target: T2, HDAC1 human recombinant (Homo sapiens, UniProt Q13547); experiment: HDAC1 inhibitory activity, fluorometric kit; format: biochemical; conditions: Class I
T2 construct: purchased Enzo Life Science BML-AK511

[3] = Cytotoxicity assay (Alamar Blue) in cardiac fibroblasts; format: cell-based, rat; conditions: Sprague-Dawley, rat, primary neonatal rat cardiac fibroblasts (CFs), CFs treated for 48 h
Procedure: CFs were treated for 48 h with all the new CTz derivatives in a broad concentration range (100 μM^−1 mM), and their cytotoxicity was then evaluated. In Table 3 cytotoxic concentration 50 (CC50) values for each of the synthesized compounds are shown. […] When comparing the different ZBG the series 5 is the least cytotoxic for CFs, while series 8 was the most cytotoxic.
(§1) Sprague Dawley rats were obtained from the Animal Breeding Facility of the School of Chemical and Pharmaceutical Sciences at the University of Chile. All studies followed the Guide for the Care and Use of Laboratory Animals published by the US National Institutes of Health (NIH Publication 8th, 2011), and experimental protocols were approved by the University of Chile Institutional Ethics Review Committee. CF were isolated from of 2 or 3–day–old Sprague-Dawley rats and cultured as described previously. Briefly, the neonatal rats were decapitated and their hearts were extracted under aseptic environment. Atria were removed and ventricles were cut into small pieces (~1–2 mm) for posterior colagenase II digestion. The digestion yield was separated by 10 min centrifugation at 89×g. The pellet was resuspended in 10 mL of Dulbecco’s Modified Eagle’s Medium/Nutrient F-12 (DMEM-F12) supplemented with 10% FBS and antibiotics (100 μg/mL streptomycin and 100 units/mL penicillin) and cultured in a humid atmosphere of 5% CO2 and 95% O2 at 37°C until confluence (5 days). The purity of the CFs population was assessed through the expression of several markers. CFs had positive staining against vimentin (Santa Cruz Biotechnology), while being negative against sarcomeric actin and desmin (Sigma-Aldrich). Experiments were performed on cells at passage 1. Cells were cultured in 35-mm well plates and serum starved for 24 h prior to stimulation.
(§2) To evaluate cytotoxicity, CFs were seeded in 12 microwell plates at a ratio of 2 × 10^4 cell/cm^2, cultured in DMEM–F12 medium + 10% FBS, which was subsequently replaced by DMEM–F12. After 24 h of serum starvation derivatives were applied at proper times and concentrations in accordance to experimental procedures. Cell viability assays were carried out using Alamar Blue®, a nontoxic, cell permeable non fluorescent compound that is blue in color. Viable cells reduce resazurin to resorufin, which produces very bright red fluorescence which is used as a quantitative cell viability measure. 10 μL of 0.2 mg/mL Alamar Blue® was added into each well followed by incubation for 24 h. The fluorescence of Alamar Blue® was read using microplate reader at 570 excitation and emission to 595 nm. Cell survival was expressed as percentage over the untreated cells. To evaluate CFs proliferation assay, cells were seeded as mentioned before, and after serum starvation, they were stimulated by 10% fetal bovine serum (FBS), in presence/absence of CTz derivatives for 24 h, at concentrations according to experiment. Cell proliferation was quantified by Alamar Blue®, according to protocol mentioned before. Cell proliferation was expressed as percentage over the control FBS treated cells.

[4] = tested on: neonatal rat cardiac fibroblasts (CFs); experiment: FBS-induced cardiac fibroblast proliferation assay (Alamar Blue); format: cell-based; conditions: 10% FBS-induced CF proliferation, 48 h, read-out: Inhibition percentage of cell proliferation
Procedure: CFs were treated for 48 h with 10% fetal bovine serum (FBS), to induce CFs proliferation in presence/absence of each new CTz derivatives in a concentration range of 1–10 μM. In Table 4, the inhibition percentage of cell proliferation for each concentration of the synthesized compounds are shown. All derivatives inhibited CFs proliferation induce by serum.
as §1, with “Cells were cultured in 35-mm well plates and serum starved for 24 h prior to stimulation.” left out
as §2, with “10 μL of 0.2 mg/mL Alamar Blue® was added into each well followed by incubation for 24 h.” left out, “To evaluate CFs proliferation assay, cells were seeded as mentioned before, and after serum starvation, they were stimulated by 10% fetal bovine serum (FBS), in presence/absence of CTz derivatives for 24 h, at concentrations according to experiment.” left out

[5] = tested on: HDACs HeLa cells nuclear extract; experiment: HDAC inhibitory activity, fluorometric kit, HeLa cell nuclear extract; format: biochemical, human; conditions: HeLa cell nuclear extract as HDAC source

T2 sequence (Q13547 whole entry): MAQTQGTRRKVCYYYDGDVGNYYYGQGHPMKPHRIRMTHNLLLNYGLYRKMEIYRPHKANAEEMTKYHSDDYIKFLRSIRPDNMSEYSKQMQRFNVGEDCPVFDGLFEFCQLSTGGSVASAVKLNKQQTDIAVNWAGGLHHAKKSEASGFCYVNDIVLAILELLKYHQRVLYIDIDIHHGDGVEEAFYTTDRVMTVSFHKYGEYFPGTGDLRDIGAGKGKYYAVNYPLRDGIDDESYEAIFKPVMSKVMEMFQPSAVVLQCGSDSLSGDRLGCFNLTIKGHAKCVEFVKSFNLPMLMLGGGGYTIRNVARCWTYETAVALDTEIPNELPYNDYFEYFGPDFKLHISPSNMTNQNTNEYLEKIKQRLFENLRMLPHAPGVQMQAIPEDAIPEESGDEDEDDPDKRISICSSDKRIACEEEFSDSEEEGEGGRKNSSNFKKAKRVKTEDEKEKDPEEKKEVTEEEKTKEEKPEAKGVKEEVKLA

IC50 [1] [µM] | IC50 [2] [µM] | IC50 [5] [µM] | Structure (SMILES) | CC50 at 48 h [3] [µM] | inhibition at 1 µM [4] [%] | inhibition at 5 µM [4] [%] | inhibition at 10 µM [4] [%]
0.449 ± 0.0207 | 0.613 ± 0.0328 | 0.509 ± 0.0233 | O=C(Nc1nc(-c2cc3cc(Br)ccc3oc2=O)cs1)c1ccc(O)c(O)c1 [Compound 6b] | 102 ± 10.3 | 15.8 ± 3.6 | 40 ± 1.8 | 64.1 ± 1.7
0.581 ± 0.0275 | 0.504 ± 0.0314 | 0.477 ± 0.0275 | COc1ccc2oc(=O)c(-c3csc(NC(=O)c4ccc(O)c(O)c4)n3)cc2c1 [Compound 6c] | 124 ± 12.8 | 10.9 ± 3.6 | 42.2 ± 1.8 | 64.9 ± 2.3
2.43 ± 0.157 | 3.38 ± 0.302 | 4.7 ± 0.31 | COc1ccc2oc(=O)c(-c3csc(NC(=O)CCCCC(=O)O)n3)cc2c1 [Compound 7c] | 99.5 ± 6.3 | 6 ± 0.4 | 33 ± 4.1 | 48.8 ± 5.2
6.34 ± 0.466 | 4.67 ± 0.362 | 5.4 ± 0.4 | O=C(O)CCCCC(=O)Nc1nc(-c2cc3cc(Br)ccc3oc2=O)cs1 [Compound 7b] | 80 ± 23.6 | 2.4 ± 1.1 | 36.1 ± 5.4 | 48 ± 4.8
